Counter-ions that a name gives are not always drawn.
How the values were obtained:
α-synuclein [1] = assay: α-synuclein accumulation in brains of V394L knock-in mice treated with CBE; type: in vivo; details: CBE daily i.p. for 30 days
Procedure: Mice homozygous for the point mutations D409H or V394L and expressing a low level of saposin C in a prosaposin knock-out background, were analyzed for accumulation of α-synuclein in the brain. These mice have been reported to accumulate glucosylceramide in the brain. Mice homozygous for the point mutations V394L only, were analyzed for α-synuclein accumulation with and without CBE treatment. […] Mice were administered CBE daily by interperitonally injection for 30 consequitive days ([…] calculated from the total weight of the mouse) and brains were analyzed by immunohistochemistry for accumulation of α-synuclein.
Brain tissue was frozen and fixed for immunohistochemistry with 4% paraformaldehyde and serial sections were co-labelled with anti-human α-synuclein (ab1903; Abcam, Cambridge, Mass.) and rabbit anti-ubiquitin (ab7780; Abcam, Cambridge, Mass.).

[2] = Phase I pharmacokinetics of oral IFG tartrate in healthy volunteers; type: in vivo, human; details: for accumulation after repeated doses: multiple-dose study, 7 days oral, Day 1 vs Day 7
Procedure: (§1) In a first-in-human single ascending dose study (1a), doses of 8, 25, 75, 150 (two cohorts), and 300 mg were administered (6 active, 2 placebo in each cohort). In a multiple ascending dose study (1b), doses of 25, 75, and 225 mg were administered daily for seven days (6 active, 2 placebo in each cohort). In both studies, of the eight subjects in each group; six were randomized to receive IFG tartrate, and two subjects received placebo. Subjects were confined from the evening of day-1 until 24 hrs after completion of dosing. In the phase 1a study subjects returned at 48 hrs (PK sampling) and 7 days (safety follow-up) following dosing. In the phase 1b study subjects returned at 48 h (PD sampling), 7 days (PD sampling and safety follow-up), and 14 days (PD sampling) following the last dose
Subjects were healthy male and female volunteers between 19 and 55 years of age (inclusive) consisting of members of the community at large.
Blood samples (10 mL each) were collected in blood collection tubes containing EDTA before dosing was determined at regular intervals for the phas 1a during 48 hr following dosing. In the phase 1b study a full IFG tartrate pharmacokinetic profile was determined for 24 hr following the first dose, Cmin values were obtained pre-dose on day 6 and 7, and another full profile was determined for 24 hr following the final, day 7, dose.

[3] = Phase I safety and tolerability in healthy volunteers; type: in vivo, human
Procedure: as §1
Safety was determined by evaluating vital signs, laboratory parameters (serum chemistry, hematology, and urinalysis), physical examination and by recording adverse events during the Treatment Period.
Safety data including laboratory evaluations, physical exams, adverse events, ECG monitoring and vital signs assessments were summarized by treatment group and point of time of collection. Descriptive statistics (arithmetic mean, standard deviation, median, minimum and maximum) were calculated for quantitative safety data as well as for the difference to baseline. Frequency counts were compiled for classification of qualitative safety data.

α-synuclein [4] = assay: α-synuclein immunohistochemistry in transgenic mice over-expressing α-synuclein; type: in vivo
Procedure: 48 transgenic animals (male and female) were allocated to 6 groups (n=8) at an age of 5 to 6 weeks concerning baseline and 3 to 4 weeks, respectively concerning all other treatment groups at treatment start. One group of transgenic animals served as baseline group (5 weeks old) and was sacrificed untreated on day 0. One group of transgenic animals was treated with vehicle.
Mice (ages 3-4 weeks) were treated once daily (orally) at either 2 mg/kg; 20 mg/kg; or 200 mg/kg of IFG tartrate for 3 months. One group also was treated once every other day at 20 mg/kg.
Animals of the baseline group were sacrificed at an age of 5 weeks. All other animals were sacrificed at the end of the 3 months treatment period and blood for preparation of serum and macrophages as well as lung, brain and CSF were extracted. Therefore, all mice were sedated by standard inhalation anesthesia (Isofluran, Baxter). Cerebrospinal fluid was obtained by blunt dissection and exposure of the foramen magnum. Upon exposure, a Pasteur pipette was inserted to the approximate depth of 0.3-1 mm into the foramen magnum. CSF was collected by suctioning and capillary action until flow fully ceases. CSF was immediately frozen and kept at −80° C.
After CSF sampling, each mouse was placed in dorsal recumbence, the thorax was opened and a 26-gauge needle attached to a 1 cc syringe was inserted into the right cardiac ventricular chamber. Light suction was applied to the needle. Blood was separated into 2 parts. […] Mice were transcardially perfused with physiological (0.9%) saline and lung tissue as well as brain was rapidly removed. The lungs were rinsed in cold PBS (outside only) to remove blood and then they were quick frozen.
The brains were removed and hemisected. The right hemispheres of all mice were immersion fixed in freshly produced 4% paraformaldehyde/PBS (pH 7.4) for one hour at room temperature. Thereafter brains were transferred to a 15% sucrose PBS solution for 24 hours to ensure cryoprotection. On the next day brains were frozen in liquid isopentane and stored at −80° C. until used for histological investigations. To determine the effects of the IFG-tartrate treatment from 8 animals per group 10 μm-thick cryosections were cut for determination of alpha-synuclein pathology. All organs and tissues mentioned were sampled and from specific brain regions i.e. hippocampus, midbrain, frontal cortex and striatum of one hemibrain were extracted and frozen. The other brain half was processed for histological evaluation.
For evaluation of the number of α-synuclein positive cells and Lewy body like inclusions an immunohistochemical staining was carried out using the monoclonal human alpha-synuclein specific antibody (Alexis@; Cat#804-258-L001), dilution 1:5, detected with secondary Cy2 antibody (Jackson Immunoresearch®). The number of alpha-synuclein positive cells in five different layers, one slice per layer, was counted for evaluation in the whole hippocampus and cortex seperately.
Briefly, samples were washed for 10 min with PBS at room temperature, followed by fixing for 30 min at room temperature with 4% paraformaldehyde, followed by washing 2 times for 5 min each with PBS at room temperature. For Proteinase K-treated sections, sections were incubated in PBS containing 10 μg/ml proteinase-K for 10 minutes at room temperature. Next, samples were incubated for 15 min at room temperature with blocking solution to block endogenous peroxidase, followed by two more 5 min washes with PBS. Samples were then incubated for 60 min at room temperature with a blocking reagent to block non-specific binding, followed by two more 5 min washes with PBS. Samples were then incubated with M.O.M. diluent for 5 min at room temperature, followed by incubation with the primary antibody (dilution 1:5 in M.O.M. diluent) for 60 min with at room temperature. […]

GCase [5] = target: GCase (Mus musculus (Mouse), UniProt P17439); assay: In vivo GCase activity in normal mice upon treatment with IFG
Procedure: This Example provides information on the effects of isofagomine, a GCase-specific chaperone on mice. […] Ten male C57BL6 (25 g) mice per group were used. The drug was be given in the drinking water, therefore water consumption was monitored daily.
In the control group (0 mg/kg/day), the mice were dosed daily in the drinking water (no drug) and divided into two groups. Ten animals were euthanized after 4 weeks of treatment, blood was collected from the descending aorta or vena cava, and tissues were harvested and then necropsied.
In the test group, 10 mice were dosed daily in the drinking water with an administration aim of 200 mg/kg/day.
The blood samples were drawn into lithium heparin and spun for plasma. After bleeding, the spleen, lung, brain and liver were removed and placed into vials. The vials were put into dry ice for rapid freezing. The tissues and plasma were then analyzed for tissue levels of GCase.
Small portions of tissue were removed and added to 500 μl lysis buffer (20 mM sodium citrate and 40 mM disodium hydrogen phosphate, pH 4.0, including 0.1% Triton X-100). Tissues were then homogenized using a microhomogenizer for a brief time, followed by centrifugation at 10,000 rpm for 10 minutes at 4° C. Supernatants were transferred to a new tube and used for the enzyme assay.
The enhancement ratio is equal to the activity with the compound over the activity without the compound.

GCase [6] = target: GCase (Homo sapiens (Human), UniProt P04062); assay: GCase enzymatic activity in healthy volunteers receiving IFG; type: in vivo
Procedure: as §1
GCase activity was determined pre-dose on days 1, 3, 5, 7, 9, 14, and 21. Blood samples were cooled in an ice bath and centrifuged under refrigeration as soon as possible. Plasma samples were divided into two aliquots and stored at […] pending assay. At the end of the study, all samples were transferred to MDS Pharma Services Analytical Laboratories (Lincoln) for analysis.

Chain of GCase (Homo sapiens (Human), UniProt P04062) (P04062 40-536): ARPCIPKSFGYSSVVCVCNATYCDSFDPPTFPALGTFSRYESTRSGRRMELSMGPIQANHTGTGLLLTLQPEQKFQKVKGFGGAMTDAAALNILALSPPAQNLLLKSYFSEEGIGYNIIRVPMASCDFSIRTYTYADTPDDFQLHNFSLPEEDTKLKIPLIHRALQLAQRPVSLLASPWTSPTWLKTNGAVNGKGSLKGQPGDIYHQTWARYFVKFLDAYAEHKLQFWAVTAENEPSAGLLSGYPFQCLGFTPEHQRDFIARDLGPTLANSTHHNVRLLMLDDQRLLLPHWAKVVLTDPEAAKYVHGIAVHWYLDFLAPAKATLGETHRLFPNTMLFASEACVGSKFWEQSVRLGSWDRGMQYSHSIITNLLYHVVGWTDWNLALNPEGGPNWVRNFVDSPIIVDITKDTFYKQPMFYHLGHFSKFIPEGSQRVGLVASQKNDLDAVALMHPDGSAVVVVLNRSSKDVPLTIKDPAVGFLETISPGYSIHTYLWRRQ
Chain of GCase (Mus musculus (Mouse), UniProt P17439) (P17439 20-515): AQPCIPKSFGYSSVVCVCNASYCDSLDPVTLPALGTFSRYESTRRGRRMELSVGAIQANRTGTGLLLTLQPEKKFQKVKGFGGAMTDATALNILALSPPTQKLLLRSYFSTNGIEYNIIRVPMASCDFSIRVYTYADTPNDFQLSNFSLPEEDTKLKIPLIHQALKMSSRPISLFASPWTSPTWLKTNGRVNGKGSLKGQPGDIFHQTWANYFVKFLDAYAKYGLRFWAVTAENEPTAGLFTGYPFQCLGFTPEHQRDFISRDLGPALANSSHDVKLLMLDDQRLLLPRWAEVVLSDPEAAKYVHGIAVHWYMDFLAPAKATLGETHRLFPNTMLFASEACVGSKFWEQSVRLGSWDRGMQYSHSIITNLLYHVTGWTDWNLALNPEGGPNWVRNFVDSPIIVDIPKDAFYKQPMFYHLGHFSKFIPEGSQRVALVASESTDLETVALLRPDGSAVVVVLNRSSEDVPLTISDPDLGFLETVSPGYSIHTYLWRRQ

SMILES | α-synuclein in the brain (α-synuclein [1]) | systemic exposure via the oral route ([2]; healthy volunteers) | accumulation after repeated doses [2] | plasma AUC and Cmax versus administered dose ([2]; single-dose study) | serious adverse events ([3]; healthy volunteers, both Phase I studies) | tolerability ([3]; healthy volunteers, single (8-300 mg) and multiple (25-225 mg, 7 days) oral doses) | number of α-synuclein immunoreactive cells in the hippocampus versus vehicle (α-synuclein [4]; 2 mg/kg daily, 3 months) | age-accompanied increase of α-synuclein positive cell load versus baseline (α-synuclein [4]; 2 mg/kg, mean of cortex and hippocampus) | accumulation of Proteinase K-resistant α-synuclein aggregates (α-synuclein [4]; 20 mg/kg, 3 months, single responding animal) | α-synuclein pathology versus controls (α-synuclein [4]; 20 mg/kg, daily or every other day, 3 months) | qualitative α-synuclein immunostaining versus control animals (α-synuclein [4]; 2 and 20 mg/kg b.w. daily, 3 months, cortex and hippocampus) | α-synuclein pathology in the cortex (α-synuclein [4]; 3 months treatment) | wild-type GCase activity dose-response (GCase [5]; mice treated with 0, 1, 10, or 100 mg/kg/day) | GCase levels in tissues (GCase [5]; normal C57BL6 mice, 200 mg/kg/day in drinking water, liver, spleen, brain and lung) | sex differences in pharmacokinetic parameters ([2]; repeated doses) | adverse events most frequently reported ([3]; healthy adult subjects) | increase in GCase levels above baseline (GCase [6]; healthy volunteers, treatment period, dose-related, maximum reached) | GCase levels after removal of the drug (GCase [6]; two weeks after the last dose)
O[C@H]1[C@H](O)[C@@H](O)[C@@H]2O[C@@H]2[C@@H]1O [CBE, conduritol-β-epoxide] | resulted in accumulation of α-synuclein in the brain | – | – | – | – | – | – | – | – | – | – | – | – | – | – | – | – | –
OC[C@H]1CNC[C@@H](O)[C@@H]1O [Isofagomine tartrate] | – | good systemic exposure | no unexpected accumulation | linearly correlated with administered dose | No serious adverse events occurred | generally well tolerated | reduced the number of immunoreactive cells in the hippocampus significantly | prevented mice from the age-accompanied increase of pathology | prevents the accumulation of these α-synuclein aggregates | not effective versus controls | strongly decreased background and decreased α-synuclein positive cell numbers in some | did not reach significance level in the cortex | – | – | – | – | – | –
OC[C@H]1CNC[C@@H](O)[C@@H]1O [Isofagomine, (3R,4R,5R)-5-(hydroxymethyl)-3,4-piperidinediol] | – | – | Minimal accumulation | – | – | – | – | – | – | – | – | – | linear dose-response increase | increased | no observable sex differences | contact dermatitis, headache, nausea, increased serum bilirubin, dizziness, scab, ocular hyperaemia, and puncture site pain | approximately 3.5 fold | return to near baseline levels by day 21
